Literature values in patent publication US10729766B2 (priority 2013, dated 2020).

Tests used:
[1] = mice; single bolus low dose administration

## O=P1(N(CCCl)CCCl)NCCCO1 (stereo not shown) [Cyclophosphamide, N,N-bis(2-chloroethyl)-1,3,2-oxazaphosphinan-2-amine 2-oxide]
[1]
  time of effects returning to normal: 7 to 10 days
  time to nadir of effects after administration: ≤ 4 days
human, in vivo, po
  bioavailability, oral versus parenteral administration: little difference in bioavailability
Varies between patients
  peak plasma levels of the parent: 3 to 11 h
